These results are taken from ChEMBL document CHEMBL6092217 (Eur J Med Chem, 2024).

As a reminder, the IC50 is the midpoint of a concentration-inhibition curve.

One test relates to RKO. Kind of test: Antiproliferative activity against human RKO cells assessed as cell viability incubated for 72 hrs by MTT assay. It is filed as functional, cell-based. A general note: Tetrazolium dyes change colour on reduction, which living cells bring about.
For another test, the system named is HepG2. Kind of test: Antiproliferative activity against human HepG2 cells assessed as cell viability incubated for 72 hrs by MTT assay. In kind it is functional, cell-based. The conditions noted are these: HepG2, 72 h.
A further test concerns MCF7. The test is described as follows: Antiproliferative activity against human MCF7 cells assessed as cell viability incubated for 72 hrs by MTT assay. It is filed as functional, cell-based. The conditions noted are these: MCF7, 72 h.
The test system of the next test is MDA-MB-231. Kind of test: cells. Particulars: Homo sapiens, MDA-MB-231, 72 h.
The subject of another test is HT-29. The test is described as follows: Antiproliferative activity against human HT-29 cells assessed as cell viability incubated for 72 hrs by MTT assay. Particulars: HT-29, 72 h. In kind it is functional, cell-based.
Another test relates to PC-3. The test is described as follows: Antiproliferative activity against human PC-3 cells assessed as cell viability incubated for 72 hrs by MTT assay. Particulars: PC-3, 72 h. It is filed as functional, cell-based.

Description for MDA-MB-231: Antiproliferative activity against human MDA-MB-231 cells assessed as cell viability incubated for 72 hrs by MTT assay

Turning to `CN(c1ccc2c(c1)OCO2)c1nc(/C=C/c2ccccc2)nc2ccccc12`, the IC50 in the test on RKO was found to be 720 nM; with HepG2, 1140 nM; in the test with MCF7 it was 1640 nM; in the test on MDA-MB-231, 3680 nM; in the test with HT-29 it was 2790 nM; in the test on PC-3, 1070 nM.
On to `COc1ccc(N(C)c2nc(/C=C/c3ccc(OC)c(OC)c3)nc3ccccc23)cc1`, for which the IC50 in the test on RKO amounted to 2730 nM; in the test on HepG2, 2740 nM; with MCF7, 3500 nM; in the test on MDA-MB-231, 7240 nM; in the test on HT-29, 2010 nM; in the test on PC-3 it was 1460 nM.
Regarding `COc1ccc(N(C)c2nc(/C=C/c3cccc(OC)c3)nc3ccc(F)cc23)cc1`, the half-inhibitory concentration (IC50) worked out at 240 nM with RKO; 360 nM with HepG2; 800 nM in the test with MCF7; 1060 nM with MDA-MB-231; 280 nM in the test on HT-29; 650 nM with PC-3.
As for `COc1ccc(N(C)c2nc(/C=C/c3ccccc3OC)nc3ccccc23)cc1`, the IC50 with RKO was above 10000 nM; in the test with HepG2, above 10000 nM; in the test on MCF7, above 10000 nM; in the test on MDA-MB-231, above 10000 nM; in the test with HT-29 it was 8160 nM; with PC-3, 740 nM.
For `CN(c1ccc2c(c1)OCCO2)c1nc(/C=C/c2ccccc2)nc2ccccc12`, the half-maximal inhibitory concentration (IC50) in the test on RKO is 410 nM; in the test on HepG2, 3440 nM; in the test with MCF7 it was 320 nM; with MDA-MB-231 it was 2060 nM; with HT-29, 670 nM; in the test on PC-3, 1460 nM.
With `COc1ccc(N(C)c2nc(C)nc3ccccc23)cc1` [VERUBULIN], the half-inhibitory concentration (IC50) in the test with RKO was determined as 9 nM; in the test with HepG2, 13 nM; with MCF7, 14 nM; in the test on MDA-MB-231, 23 nM; in the test with HT-29, 7 nM; with PC-3, 10 nM.
For `CN(c1ccc(OC(F)(F)F)cc1)c1nc(/C=C/c2ccccc2)nc2ccccc12`, the concentration for half-maximal inhibition (IC50) with RKO, with HepG2, with MCF7, in the test on MDA-MB-231, with HT-29 and in the test on PC-3 was above 10000 nM each time.
With `COc1ccc(N(C)c2nc(/C=C/c3cccc(Cl)c3Cl)nc3ccccc23)cc1`, the IC50 in the test on RKO was 5750 nM; in the test with HepG2, above 10000 nM; in the test with MCF7 it was above 10000 nM; with MDA-MB-231, above 10000 nM; in the test with HT-29 it was 1420 nM; in the test with PC-3, 2990 nM.
Take `CN(c1ccccc1)c1nc(/C=C/c2ccccc2)nc2ccccc12`: the IC50 with RKO, in the test on HepG2, with MCF7, in the test on MDA-MB-231, with HT-29 and in the test with PC-3 was above 10000 nM in each case.
On to `COc1ccc(N(C)c2nc(/C=C/c3cccc(F)c3)nc3ccc(F)cc23)cc1`, for which the IC50 in the test on RKO was 620 nM; in the test with HepG2 it was 730 nM; in the test on MCF7, 340 nM; with MDA-MB-231, 2520 nM; in the test on HT-29 it was 460 nM; in the test with PC-3, 360 nM.
For `COc1ccc(N(C)c2nc(/C=C/c3ccc(Cl)cc3Cl)nc3ccccc23)cc1`, the IC50 with RKO was 1760 nM; with HepG2, above 10000 nM; in the test with MCF7, above 10000 nM; with MDA-MB-231 it was above 10000 nM; in the test on HT-29 it was 4750 nM; in the test with PC-3, 1450 nM.
For the compound `O=c1[nH]cc(F)c(=O)[nH]1` [FLUOROURACIL], the IC50 in the test on RKO, in the test with HepG2, in the test with MCF7, in the test on MDA-MB-231, with HT-29 and in the test on PC-3 was above 10000 nM throughout.
Consider `COc1ccc(N(C)c2nc(/C=C/c3ccc(Cl)cc3)nc3ccccc23)cc1`, for which the IC50 with RKO was found to be 460 nM; in the test with HepG2, 940 nM; in the test with MCF7, 610 nM; in the test with MDA-MB-231 it was 830 nM; in the test on HT-29, 310 nM; in the test on PC-3, 620 nM.
On to `COc1ccc(N(C)c2nc(/C=C/c3cccc(OC)c3)nc3cccc(F)c23)cc1`, for which the IC50 was 150 nM in the test with RKO; 410 nM in the test on HepG2; 460 nM in the test on MCF7; 800 nM with MDA-MB-231; 240 nM in the test on HT-29; 360 nM in the test with PC-3.
Regarding `COc1ccc(N(C)c2nc(/C=C/c3cccc(F)c3)nc3cccnc23)cc1`, the IC50 is 510 nM in the test with RKO; 680 nM with HepG2; 1180 nM in the test on MCF7; 2880 nM in the test with MDA-MB-231; 200 nM in the test with HT-29; 330 nM in the test on PC-3.
On to `COc1ccc(OC)c(N(C)c2nc(/C=C/c3ccccc3)nc3ccccc23)c1`, for which the half-maximal inhibitory concentration (IC50) with RKO, in the test with HepG2, in the test with MCF7, with MDA-MB-231, in the test on HT-29 and in the test with PC-3 was above 10000 nM in each case.
As for `COc1ccc(N(C)c2nc(/C=C/c3cccc(Cl)c3)nc3ccccc23)cc1`, the IC50 in the test with RKO is 1370 nM; with HepG2 it was 1730 nM; in the test with MCF7, 1060 nM; with MDA-MB-231, 4170 nM; in the test with HT-29 it was 710 nM; with PC-3, 2180 nM.
With `COc1ccc(/C=C/c2nc(N(C)c3ccc(OC)cc3)c3ccccc3n2)cc1`, the half-maximal inhibitory concentration (IC50) in the test with RKO turned out to be 940 nM; with HepG2, 4480 nM; with MCF7 it was 3660 nM; with MDA-MB-231, 1800 nM; with HT-29, 890 nM; in the test on PC-3 it was 2750 nM.
For the compound `CN(c1ccc2occc2c1)c1nc(/C=C/c2ccccc2)nc2ccccc12`, the IC50 amounted to 1590 nM in the test on RKO; 4000 nM in the test on HepG2; 2560 nM in the test with MCF7; 6570 nM in the test on MDA-MB-231; 2840 nM in the test with HT-29; 7410 nM in the test with PC-3.
As to `CN(c1ccc(C(F)(F)F)cc1)c1nc(/C=C/c2ccccc2)nc2ccccc12`, the IC50 with RKO, with HepG2, in the test with MCF7, with MDA-MB-231, with HT-29 and in the test on PC-3 was above 10000 nM throughout.
In the case of `COc1ccc(N(C)c2nc(/C=C/c3ccc([N+](=O)[O-])cc3)nc3ccccc23)cc1`, the IC50 is 4270 nM in the test with RKO; 7010 nM in the test with HepG2; 5610 nM with MCF7; 9480 nM in the test with MDA-MB-231; 3240 nM in the test on HT-29; 2850 nM with PC-3.
In the case of `COc1ccc(N(C)c2nc(/C=C/c3ccc(OC)c(OC)c3OC)nc3ccccc23)cc1`, the IC50 in the test on RKO was determined as 220 nM; in the test with HepG2, 530 nM; in the test with MCF7 it was 410 nM; in the test on MDA-MB-231, 600 nM; with HT-29, 170 nM; in the test on PC-3, 490 nM.
In the case of `COc1cc(N(C)c2nc(/C=C/c3ccccc3)nc3ccccc23)cc(OC)c1OC`, the IC50 with RKO, in the test on HepG2, in the test with MCF7, in the test on MDA-MB-231, in the test on HT-29 and in the test on PC-3 was above 10000 nM each time.
Take `COc1ccc(N(C)c2nc(/C=C/c3ccc(C)cc3)nc3ccccc23)cc1`: the IC50 worked out at 1710 nM in the test on RKO; 3010 nM in the test on HepG2; 3110 nM in the test with MCF7; 2560 nM in the test with MDA-MB-231; 460 nM in the test with HT-29; 460 nM in the test on PC-3.
